In PubChem BioAssay AID179 (DTP/NCI, 2004) one finds EC50, IC50 and outcome data, which are given here for 73 compounds.

“And” between values parts separate entries of the source, which are not always exact repeats. Identical values can stand only once. The source made the active and inactive calls.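 How the source made its calls: active means compounds giving half or more protection of infected cells from virus-caused growth loss, again on retest; inactive means the rest.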 Where a SMILES comes first, the peptide text is derived from it. Bounds are passed on as bounds.

The EC50 is the midpoint of the concentration-response curve. The IC50 is the point on the concentration scale where inhibition reaches its midpoint. Lower therefore signals greater potency in that assay.

The subject of this assay is CEM cells HIV-1 protection, formazan growth assay. The assay can be described thus: NCI AIDS Antiviral Assay. Conditions: for IC50: measured here: growth of uninfected CEM cells. The essentials: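 Protection of CEM cells against HIV-1 was scored from cell growth (soluble formazan) across five concentrations, with parallel uninfected cells. Lack of protection may reflect toxicity.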

Regarding `CCOP(=O)(OCC)C(N)c1ccc(OC)cc1` (stereo unspecified), the EC50 is above 813 µM and the IC50 is above 813 µM.

Consider `O=S1(=O)OC(c2cc(Cl)c(O)c(Br)c2)(c2cc(Cl)c(O)c(Br)c2)c2ccccc21`, for which the EC50 was 380 µM and the IC50 was 501 µM.

For the compound `Cc1ccccc1[P+](Cc1ccccc1)(c1ccccc1)c1ccccc1`, the EC50 was above 200 µM and the IC50 came out at 1.26 µM.

As for `Nc1nc(NCCOCP(=O)(O)O)c(N)c(=O)[nH]1`, the EC50 is above 200 µM and the IC50 is above 200 µM.

As for `O=C(Nc1nc2ncn(CCNCc3ccccc3)c2c(=O)[nH]1)c1ccccc1`, the EC50 was above 174 µM and the IC50 is 105 µM.

As for `CC(=O)N1C(Nc2ccccn2)CCN1c1ccccc1` (stereo unspecified), the EC50 was above 200 µM and the IC50 was determined as 38 µM.

As to `CCC1(CC=C(C)C)Oc2cccnc2-n2cccc2C1=O` (stereo unspecified), the EC50 is above 200 µM and the IC50 came out at 117 µM.

As for `O=C(O)c1nc2cc(C(F)(F)F)ccc2nc1Nc1ccc(F)cc1`, the EC50 is above 200 µM and the IC50 amounted to 7.76 µM.

As for `CN=C1CN2OC(=O)N(C)C2(c2ccccc2)c2cc(Cl)ccc2N1` (stereo unspecified), the EC50 is above 112 µM and the IC50 was 41.7 µM.

As for `C#C[C@]1(O)CCC2C3CCc4cc(Oc5nc(F)nc(-n6c(C)nc7cc8ccccc8cc76)n5)ccc4C3CCC21C` (stereo partly specified), the EC50 is above 200 µM and the IC50 was found to be 28.2 µM.

With `Cc1ccc(S(=O)(=O)C(C#N)c2nc3ccccc3nc2-n2cccn2)cc1` (stereo unspecified), the EC50 is above 200 µM and the IC50 was found to be 126 µM.

As for `O=[N+]([O-])c1ccc2cnn(CSP(=S)(c3ccccc3)c3ccccc3)c2c1`, the EC50 is above 200 µM and the IC50 is 3.02 µM.

Turning to `Cc1c([O-])c([O-])c(C)c2c1OCO2.[C-]#[O+].[C-]#[O+].[C-]#[O+].[C-]#[O+].[Re]`, the EC50 was above 200 µM and the IC50 is 31.6 µM.

Turning to `C(=NC12CC3CC(CC(C3)C1)C2)C1CCCCC1`, the EC50 was above 200 µM and the IC50 is above 200 µM.

Consider `Cc1nc2c(ccc3[nH]c4ccccc4c32)s1`, for which the result was inactive.

Consider `Cc1nc(Nc2ccccc2)sc1C(=O)CC(=O)C(=O)Nc1c(C(C)C)cccc1C(C)C`, for which the EC50 is above 77.6 µM and the IC50 was above 77.6 µM.

As for `CCOP(=O)(/C=C/c1cc(OC)ccc1OC)OCC`, the EC50 is above 832 µM; the IC50 was 355 µM and 158 µM.

For the compound `CCN(CC)CCCNC(=O)Cc1ccccc1Nc1c(Cl)cccc1Cl`, the EC50 was above 200 µM and the IC50 is 16.6 µM.

As for `COc1ccc(/C=N/NS(=O)(=O)c2ccc(/C=C3\NC(=O)NC3=O)cc2)cc1`, the EC50 is above 200 µM and the IC50 is above 200 µM.

Consider `CN(C)Cc1cc(N=Nc2ccc(Cl)cc2)cc(CN(C)C)c1O`, for which the EC50 was above 20 µM and the IC50 is 8.71 µM.

As to `O=c1[nH]c2ccccc2c2oc(-c3ccccc3)nc12`, the EC50 is above 100 µM and the IC50 was above 100 µM.

As to `CCOC(=O)/C=C\SCCC(=O)O`, the EC50 was above 1230 µM and the IC50 is above 1230 µM.

Consider `Cc1nc2ccccc2c(=O)n1NC(=O)c1ccccc1O`, for which the EC50 is above 200 µM and the IC50 worked out at 38 µM.

As to `CCCCCOCC(O)CO` (stereo unspecified), the result was inactive.

As for `O=C(Cn1c2ccc(Br)cc2c2nc3ccccc3nc21)NC1CCCCC1`, the EC50 was above 100 µM and the IC50 was above 100 µM.

Consider `COc1ccc2nc(-c3ccccc3)c(=O)[nH]c2c1`, for which the EC50 was above 200 µM and the IC50 stood at 45.7 µM.

As to `COC(=O)CN1C(=O)c2cccc3cc(N)cc(c23)C1=O`, the EC50 is above 200 µM and the IC50 is above 200 µM.

For the compound `CCN(CC)CC(=O)Nc1cc(NC(=O)CN(CC)CC)c(C)c(NC(=O)CN(CC)CC)c1`, the EC50 was above 200 µM and the concentration for half-maximal inhibition (IC50) came to 56.2 µM.

Consider `COC(=O)Cc1cccc2c1CCC2=O`, for which the EC50 is above 200 µM and the IC50 is above 200 µM.

`Cc1cn(C2CC(O[Si](C)(C)C(C)(C)C)C(/C=N\O)O2)c(=O)[nH]c1=O` (stereo unspecified): the EC50 is above 200 µM and the IC50 was above 200 µM.

Take `N#Cc1ccc(C(O)C(F)(F)c2nc3ccccc3o2)cc1` (stereo unspecified): the EC50 was above 200 µM and the IC50 was above 200 µM.

Turning to `O=C(NO)c1ccc(O)c(O)c1`, the EC50 is above 1480 µM and the IC50 worked out at 74.1 µM.

Take `O=C(O)c1ccccc1C(=O)Nn1cnnc1`: the EC50 was above 200 µM and the IC50 was above 200 µM.

Take `N.N.O=N[O-].O=N[O-].O=N[O-].O=N[O-].[Co+3].[Cs+]`: the result was inactive.

With `COC(=O)NC1=Nc2ccccc2C(=O)NN1`, the EC50 is above 200 µM and the IC50 was above 200 µM.

`CC(C)CC(NC(=O)C(Cc1ccc(O)cc1)NC(=O)C(CO)NC(=O)C(C)NC(=O)C(CCCN=C(N)N)NC(=O)C(CCC(N)=O)NC(=O)C(NC(=O)C(N)CCC(=O)O)C(C)C)C(=O)NC(CO)C(=O)NC(CCCCN)C(=O)O` (stereo unspecified) (H-EVQRASYLSK-OH; configuration not given here): the result was inactive.

Regarding `CC(C)(C)c1cc(S(=O)(=O)O)c2oc(-c3ccccc3)cc(=O)c2c1`, the EC50 was above 200 µM and the IC50 is above 200 µM.

Regarding `Cc1cc2c(cc1C)NC(=O)CC(=O)N2`, the EC50 is above 200 µM and the IC50 is above 200 µM.

With `COc1ccccc1NC(=S)N/N=C/c1ccccn1`, the EC50 was above 0.2 µM and the IC50 came out at 0.0955 µM.

With `CCOc1cc2c(cc1O)C=C[C@@H]1[C@@H]2CC[C@]2(C)[C@@H](O)CC[C@@H]12`, the EC50 is above 2 µM and the half-maximal inhibitory concentration (IC50) turned out to be 0.589 µM.

For the compound `CC(=O)NC(CCCN)C(=O)NCc1ccccc1` (stereo unspecified), the EC50 was above 955 µM and the IC50 is above 955 µM.

In the case of `Nc1[nH]n(-c2ccccc2)c(=O)c1/C=N/C(=S)N=Nc1c(O)[nH]c2ccccc12`, the EC50 is above 200 µM and the IC50 worked out at 83.2 µM.

As for `CN1CCN(C)C12C=CC=CC21CC1`, the result was inactive.

For `O=C1CN2C=CC=CC2=NN1`, the EC50 was above 603 µM and the IC50 is 407 µM.

Consider `N#C/C(=C\c1cccc(F)c1)C(=O)c1ccccc1`, for which the EC50 was above 39.8 µM and the IC50 is above 39.8 µM.

For `CC1(C)C(=O)/C(=C/c2ccccc2)C(C)(C)C1(C)C`, the outcome was inactive.

Turning to `Cc1c(O)c(OC2OC(CO)C(O)C(O)C2O)cc2c1CC[C@@H]1C2(C)C(=O)C[C@]2(C)[C@@H]([C@@](C)(O)C(O)/C=C/C(C)(C)O)[C@H](O)C[C@@]12C` (stereo partly specified), the EC50 is above 200 µM and the concentration for half-maximal inhibition (IC50) is above 200 µM.

For the compound `CCOC(=O)NC(=O)c1cn(CCCOC(=O)NCCCCCCNC(=O)OCCCn2cc(C(=O)NC(=O)OCC)c(=O)[nH]c2=O)c(=O)[nH]c1=O`, the result was inactive.

Turning to `Cc1ccccc1CN1CC=c2ccccc2=N1`, the EC50 was 51.3 µM and the IC50 came out at 129 µM.

`N=C1C(=O)NC(=O)C1c1ccccc1` (stereo unspecified): the EC50 was above 200 µM and the IC50 is 151 µM.

As for `c1ccc2c3ccn4ccc5c6ccccc6[nH]c5c4c-3nc2c1`, the EC50 is above 10 µM and the IC50 came out at 0.513 µM.

As for `CCOC(=O)C(Cc1c[nH]c2ccc(N)cc12)(NC(C)=O)C(=O)OCC`, the EC50 is above 200 µM and the IC50 was above 200 µM.

For `COc1ccc(OC)c(/C=C(\C#N)c2ccc([N+](=O)[O-])cc2)c1`, the EC50 was above 200 µM and the IC50 is above 200 µM.

For `CC(=O)OCC1OC(n2c(=S)n(-c3ccccc3)c(=O)c3cc(Br)cc(Br)c32)C(OC(C)=O)C(OC(C)=O)C1OC(C)=O` (stereo unspecified), the EC50 was above 18.2 µM and the IC50 is above 18.2 µM.

As for `OC(c1ccccc1)c1cccc(C(O)c2ccccc2)c1` (stereo unspecified), the EC50 is above 123 µM and the IC50 is above 123 µM.

As to `Cc1cccc(C(C)(C)C)c1NC(=O)C(=O)Cc1nc2ccccc2s1`, the result was inactive.

With `COc1ccc2c(OC)c3ccoc3nc2c1O`, the EC50 is above 50.1 µM and the IC50 worked out at 32.4 µM.

Take `CCOP(=O)(OCC)/C(C#N)=C/c1c(C)[nH]c2ccccc12`: the EC50 is above 200 µM and the IC50 amounted to 158 µM.

As for `O=c1[nH]c(=O)c2[nH]c(Cl)nc2[nH]1`, the EC50 is above 28.2 µM and the IC50 is above 28.2 µM.

Regarding `Cc1n(Cc2ccccc2)nc2sc(N)n[n+]12`, the EC50 was above 200 µM and the IC50 was 64.6 µM.

As to `CC1CN=C(Nc2ccc(F)cc2F)S1` (stereo unspecified), the EC50 is above 200 µM and the IC50 was above 200 µM.

In the case of `CCOC(=O)N[C@@H]1C2CC(=O)C(O2)[C@@H]1OC` (stereo partly specified), the result was inactive.

Regarding `OCC(O)C(OC1OC(CO)C(O)C(O)C1O)C(O)C(/C=N\Nc1ccccc1)=N/Nc1ccccc1` (stereo unspecified), the EC50 is above 200 µM and the IC50 was 4.9 µM.

With `COc1ccc(C2Oc3c(cccc3OC)C=C2[N+](=O)[O-])cc1` (stereo unspecified), the EC50 was above 200 µM and the IC50 is 1.51 µM.

In the case of `COc1ccc([N+](=O)[O-])c2c(NCCC[N+](C)(C)[O-])c3ccccc3nc12`, the EC50 was above 200 µM and the IC50 turned out to be 3.09 µM.

Regarding `COC(=O)c1nc(NN)[nH]c(=O)c1CCCCCc1c(C(=O)OC)[nH]c(NN)cc1=O`, the EC50 is above 6.31 µM and the IC50 was above 6.31 µM.

For the compound `CC12C=CC(C)(C3C(=O)C4C(C(=O)C31)C1(C)C=CC4(C)S1=O)S2=O` (stereo unspecified), the EC50 is 21.9 µM and the IC50 was 60.3 µM.

`CC(=O)Nc1cc2c(cc1[N+](=O)[O-])-c1ccccc1C2=O`: the EC50 was above 200 µM and the IC50 was above 200 µM.

Regarding `Nc1ncnc(N)c1N=O`, the EC50 is above 200 µM; the IC50 is 5.89 µM and 1.62 µM.

With `Cc1ccc(S(=O)(=O)N(C=O)N=C2CCN(Cc3ccccc3)CC2)cc1`, the EC50 was above 61.7 µM and the IC50 was above 61.7 µM.

Turning to `NC(CSS(=O)(=O)O)=NCCCCOc1ccccc1`, the EC50 is above 200 µM and the IC50 worked out at 91.2 µM.

With `c1ccc2c(c1)sc1scc[n+]12`, the EC50 is above 617 µM and the IC50 stood at 12.9 µM.

With `COC(=O)[C@@H]1C=CCN1S(=O)(=O)c1ccc(C)cc1`, the result was inactive.
